Tests used:
Assay in all cases: Test E
BONANZA BARLEY = assay type: in vivo, Hordeum vulgare cv. Bonanza
CMN CHICKWEED = assay type: in vivo, Stellaria media
CTCHWD BEDSTRAW = assay type: in vivo, Galium aparine
WILD BUCKWHEAT = assay type: in vivo, Polygonum convolvulus
WILD RADISH = assay type: in vivo, Raphanus raphanistrum
ANN. BLUEGRASS = assay type: in vivo, PO annua
BLACKGRASS = assay type: in vivo, Alopercurus mysuroides
From the text: Seeds of the following crops and weeds are sown into 15 cm pots containing Sassafras sandy loam soil: wheat (Triticum aestivum cv. Park), barley (Hordeum vulgare cv. Bonanza), sugarbeet (Beta vulgaris cv. USH-11), rapeseed (Brassica napus cv. Jet Neuf), black nightshade (Solanum nigrum), chickweed (Stellaria media), lambsquarter (Chenopodium album), Galium aparine, knotweed (Polygonum aviculare), Kochia scoparia, Matricaria indora, redroot pigweed (Amaranthus retroflexus), smartweed (Polygonum persicaria), speedwell (Veronica persica), wild buckwheat (Polygonum convolvulus), wild mustard (Brassica spp.), wild radish (Raphanus raphanistrum), annual bluegrass (PO annua), annual ryegrass (Lolium multiflorum), blackgrass (Alopercurus mysuroides), green foxtail (Setaria viridis), and wild oats (Avena fatua). Compounds are formulated in a nonphytotoxic solvent and applied to the plants as a foliar spray or applied to the soil surface. Plants are treated at two stages: preemergence, or postemergence when the sugarbeets are at the 2-3 true leaf stage. Plants are grown in a temperature-controlled greenhouse for the duration of the test.
Weed control and crop injury are evaluated visually at 3-4 weeks after compound application, using a scale of 0 to 100%, where 0=no injury and 100=complete death of the plant. All plants are rated with respect to untreated plants (checks) grown in the greenhouse under identical conditions to the treated plants.

| Structure (SMILES) | plant response (BONANZA BARLEY; POSTEMERGENCE 0064 GM/HA) [%] | plant response (BONANZA BARLEY; POSTEMERGENCE 0125 GM/HA) [%] | plant response (BONANZA BARLEY; POSTEMERGENCE 0250 GM/HA) [%] | plant response (BONANZA BARLEY; POSTEMERGENCE 0500 GM/HA) [%] | plant response (CMN CHICKWEED; POSTEMERGENCE 0064 GM/HA) [%] | plant response (CMN CHICKWEED; POSTEMERGENCE 0125 GM/HA) [%] | plant response (CMN CHICKWEED; POSTEMERGENCE 0250 GM/HA) [%] | plant response (CMN CHICKWEED; POSTEMERGENCE 0500 GM/HA) [%] | plant response (CTCHWD BEDSTRAW; POSTEMERGENCE 0064 GM/HA) [%] | plant response (CTCHWD BEDSTRAW; POSTEMERGENCE 0125 GM/HA) [%] | plant response (CTCHWD BEDSTRAW; POSTEMERGENCE 0250 GM/HA) [%] | plant response (CTCHWD BEDSTRAW; POSTEMERGENCE 0500 GM/HA) [%] | plant response (WILD BUCKWHEAT; POSTEMERGENCE 0064 GM/HA) [%] | plant response (WILD BUCKWHEAT; POSTEMERGENCE 0125 GM/HA) [%] | plant response (WILD BUCKWHEAT; POSTEMERGENCE 0250 GM/HA) [%] | plant response (WILD BUCKWHEAT; POSTEMERGENCE 0500 GM/HA) [%] | plant response (WILD RADISH; POSTEMERGENCE 0064 GM/HA) [%] | plant response (WILD RADISH; POSTEMERGENCE 0125 GM/HA) [%] | plant response (WILD RADISH; POSTEMERGENCE 0250 GM/HA) [%] | plant response (WILD RADISH; POSTEMERGENCE 0500 GM/HA) [%] | other results |
| --- | --- | --- | --- | --- | --- | --- | --- | --- | --- | --- | --- | --- | --- | --- | --- | --- | --- | --- | --- | --- | --- |
| C=C(c1ccc(F)cc1)C(O)(Cn1cncn1)c1ccc(F)cc1F (stereo not drawn) [Example 4, 2-(2,4-Difluorophenyl)-3-(4-fluorophenyl)-1-(1H-1,2,4-triazol-1-yl)-3-buten-2-ol] | 20 | 30 | 40 | 60 | 0 | 0 | 0 | 0 | 20 | 20 | 80 | 100 | 0 | 0 | 40 | 70 | 20 | 60 | 80 | 90 | plant response (BONANZA BARLEY; PREEMERGENCE 0500 GM/HA): 100%; plant response (CMN CHICKWEED; PREEMERGENCE 0500 GM/HA): 0%; plant response (CTCHWD BEDSTRAW; PREEMERGENCE 0500 GM/HA): 100%; plant response (WILD BUCKWHEAT; PREEMERGENCE 0500 GM/HA): 40%; plant response (WILD RADISH; PREEMERGENCE 0500 GM/HA): 50%; plant response (ANN. BLUEGRASS; POSTEMERGENCE 0064 GM/HA): 0%; plant response (ANN. BLUEGRASS; POSTEMERGENCE 0125 GM/HA): 20%; plant response (ANN. BLUEGRASS; POSTEMERGENCE 0250 GM/HA): 40%; plant response (ANN. BLUEGRASS; POSTEMERGENCE 0500 GM/HA): 60%; plant response (ANN. BLUEGRASS; PREEMERGENCE 0500 GM/HA): 100%; plant response (BLACKGRASS; POSTEMERGENCE 0064 GM/HA): 0%; plant response (BLACKGRASS; POSTEMERGENCE 0125 GM/HA): 20%; plant response (BLACKGRASS; POSTEMERGENCE 0250 GM/HA): 20%; plant response (BLACKGRASS; POSTEMERGENCE 0500 GM/HA): 50%; plant response (BLACKGRASS; PREEMERGENCE 0500 GM/HA): 90% |
| C=C(c1ccccc1)C(O)(Cn1cncn1)c1ccc(Cl)cc1 (stereo not drawn) [Example 51, 2-(4-Chlorophenyl)-3-phenyl-1-(1H-1,2,4-triazol-1-yl)-3-buten-2-ol] | 0 | 0 | 0 | 0 | 0 | 0 | 0 | 0 | 0 | 0 | 0 | 50 | 0 | 0 | 0 | 0 | 0 | 30 | 30 | 60 | plant response (BONANZA BARLEY; PREEMERGENCE 0500 GM/HA): 30%; plant response (CMN CHICKWEED; PREEMERGENCE 0500 GM/HA): 0%; plant response (CTCHWD BEDSTRAW; PREEMERGENCE 0500 GM/HA): 0%; plant response (WILD BUCKWHEAT; PREEMERGENCE 0500 GM/HA): 0%; plant response (WILD RADISH; PREEMERGENCE 0500 GM/HA): 0%; plant response (ANN. BLUEGRASS; POSTEMERGENCE 0064 GM/HA): 0%; plant response (ANN. BLUEGRASS; POSTEMERGENCE 0125 GM/HA): 0%; plant response (ANN. BLUEGRASS; POSTEMERGENCE 0250 GM/HA): 20%; plant response (ANN. BLUEGRASS; POSTEMERGENCE 0500 GM/HA): 50%; plant response (ANN. BLUEGRASS; PREEMERGENCE 0500 GM/HA): 20%; plant response (BLACKGRASS; POSTEMERGENCE 0064 GM/HA): 0%; plant response (BLACKGRASS; POSTEMERGENCE 0125 GM/HA): 0%; plant response (BLACKGRASS; POSTEMERGENCE 0250 GM/HA): 0%; plant response (BLACKGRASS; POSTEMERGENCE 0500 GM/HA): 0%; plant response (BLACKGRASS; PREEMERGENCE 0500 GM/HA): 0% |
| C=C(c1ccccc1)C(O)(Cn1cncn1)c1ccc(F)cc1F (stereo not drawn) [Example 52, 2-(2,4-Difluorophenyl)-3-phenyl-1-(1H-1,2,4-triazol-1-yl)-3-buten-2-ol] | 0 | 20 | 20 | 40 | 0 | 0 | 0 | 0 | 20 | 80 | 70 | 100 | 0 | 0 | 0 | 30 | 10 | 10 | 50 | 80 | plant response (BONANZA BARLEY; PREEMERGENCE 0250 GM/HA): 100%; plant response (CMN CHICKWEED; PREEMERGENCE 0250 GM/HA): 0%; plant response (CTCHWD BEDSTRAW; PREEMERGENCE 0250 GM/HA): 100%; plant response (WILD BUCKWHEAT; PREEMERGENCE 0250 GM/HA): 20%; plant response (WILD RADISH; PREEMERGENCE 0250 GM/HA): 50%; plant response (ANN. BLUEGRASS; POSTEMERGENCE 0064 GM/HA): 30%; plant response (ANN. BLUEGRASS; POSTEMERGENCE 0125 GM/HA): 40%; plant response (ANN. BLUEGRASS; POSTEMERGENCE 0250 GM/HA): 60%; plant response (ANN. BLUEGRASS; POSTEMERGENCE 0500 GM/HA): 70%; plant response (ANN. BLUEGRASS; PREEMERGENCE 0250 GM/HA): 100%; plant response (BLACKGRASS; POSTEMERGENCE 0064 GM/HA): 0%; plant response (BLACKGRASS; POSTEMERGENCE 0125 GM/HA): 0%; plant response (BLACKGRASS; POSTEMERGENCE 0250 GM/HA): 20%; plant response (BLACKGRASS; POSTEMERGENCE 0500 GM/HA): 60%; plant response (BLACKGRASS; PREEMERGENCE 0250 GM/HA): 20% |
| C=C(c1ccc(Cl)cc1Cl)C(O)(Cn1cncn1)c1ccccc1F (stereo not drawn) [Example 107] |  |  |  |  |  |  |  |  |  |  |  |  |  |  |  |  |  |  |  |  | plant response (BONANZA BARLEY; PREEMERGENCE 0250 GM/HA): 80%; plant response (CMN CHICKWEED; PREEMERGENCE 0250 GM/HA): 0%; plant response (CTCHWD BEDSTRAW; PREEMERGENCE 0250 GM/HA): 0%; plant response (WILD BUCKWHEAT; PREEMERGENCE 0250 GM/HA): 0%; plant response (WILD RADISH; PREEMERGENCE 0250 GM/HA): 60%; plant response (ANN. BLUEGRASS; PREEMERGENCE 0250 GM/HA): 20%; plant response (BLACKGRASS; PREEMERGENCE 0250 GM/HA): 20% |
| C=C(c1ccc(F)cc1)C(O)(Cn1cncn1)c1ccccc1F (stereo not drawn) [Example 644] | 0 | 20 | 20 | 40 | 0 | 0 | 0 | 0 | 0 | 30 | 30 | 30 | 0 | 0 | 0 | 0 | 20 | 30 | 50 | 80 | plant response (BONANZA BARLEY; PREEMERGENCE 0500 GM/HA): 50%; plant response (CMN CHICKWEED; PREEMERGENCE 0500 GM/HA): 20%; plant response (CTCHWD BEDSTRAW; PREEMERGENCE 0500 GM/HA): 0%; plant response (WILD BUCKWHEAT; PREEMERGENCE 0500 GM/HA): 30%; plant response (WILD RADISH; PREEMERGENCE 0500 GM/HA): 0%; plant response (ANN. BLUEGRASS; POSTEMERGENCE 0064 GM/HA): 20%; plant response (ANN. BLUEGRASS; POSTEMERGENCE 0125 GM/HA): 50%; plant response (ANN. BLUEGRASS; POSTEMERGENCE 0250 GM/HA): 50%; plant response (ANN. BLUEGRASS; POSTEMERGENCE 0500 GM/HA): 80%; plant response (ANN. BLUEGRASS; PREEMERGENCE 0500 GM/HA): 80%; plant response (BLACKGRASS; POSTEMERGENCE 0064 GM/HA): 0%; plant response (BLACKGRASS; POSTEMERGENCE 0125 GM/HA): 0%; plant response (BLACKGRASS; POSTEMERGENCE 0250 GM/HA): 30%; plant response (BLACKGRASS; POSTEMERGENCE 0500 GM/HA): 50%; plant response (BLACKGRASS; PREEMERGENCE 0500 GM/HA): 20% |

From patent US4965280A, “Antifungal carbinols” (E. I. Du Pont de Nemours and Company, priority 1989, dated 1990)
